Data taken from article PMC9353477, “A Functional Screening Identifies a New Organic Selenium Compound Targeting Cancer Stem Cells: Role of c‐Myc Transcription Activity Inhibition in Liver Cancer” (Advanced Science, 2022).

Assays:
Hep3B = assay: cells; conditions: 48 h; for viability at 10 µM: Homo sapiens, Hep3B, read-out: Cell viability of Hep3B (Mean of Hep3B/DMSO) (%)
Procedure: (§1) The L02 and Hep3B cells were seeded in 96‐well plates (5000 cells per well), 24 h later, the cells were treated with DMSO (Control group) or each small molecule compound (10 µM) for another 48 h. Then cells were treated with CCK‐8 reagent (Dojindo Laboratories, Kumamoto, Japan) and incubated at 37 °C for 2 h. Absorbance at 450 nm was measured by SpectraMax M2e (Molecular devices, San Jose, CA). Five replicate wells for each group and three independent experiments were conducted. The cell viability (%) of each small molecule compound was normalized as the ratio of each compound/DMSO in L02 and Hep3B cells, respectively. The relative cell viability (%) = The cell viability of L02 cells (%) − The cell viability of Hep3B cells (%). […] Given that the common concentration used in in vitro drug screening is 10 µM,^[ [24] ^] therefore, in the three rounds of drug screening, all small molecules are 10 µM. […] A) Flowchart of functional screening. B) Scattered plot showing the cell viability of each small molecule in human normal fetal liver cell L02 and liver cancer Hep3B cells, 48 h after treatment with each compound (10 µM). […] C) Images and statistical histogram of 3D tumor spheroids from Hep3B (cultured for 5 days, followed by treated with 16 candidate compounds (10 µM) for another 3 days). Tumor spheroid was quantified as the total cross‐sectional area of spheroid in each group (area mean), n = 3, Means ± SD, ^* p < 0.05, ^** p < 0.01, Student's t‐test. D) Statistical histogram of the CD13^+CD133^+ population, 48 h after treatment with each candidate compound (10 µM), analyzed by FCM, n = 3, Means ± SD; ^* p < 0.05, ^** p < 0.01; Student's t‐test. E) Representative images of tumorspheres from HCC cells that received a 48‐h pretreatment with each candidate compound (10 µM) before tumorsphere culture. Bars, 1000 µm. Tumorspheres were quantified as the total cross‐sectional area of tumorspheres in each group (area sum), and similarly hereafter unless indicated. Statistical histogram of the tumorsphere size. n = 3, means ± SD, each compound compared with DMSO, ^* p < 0.05, ^** p < 0.01, Student's t‐test. F) Heat maps of functional screening results, shown by the relative value of CD13^+CD133^+ population (D) and tumorsphere size (E), with normalizing the vehicle group as 100%. CU27 chemical structure is shown in the right.

in vitro = conditions: human, l02 cells
Procedure: as §1

[1] = target: T1, truncated c-Myc protein (a.a 354-437) (Homo sapiens, UniProt P01106); assay: SPR (Biacore S200, CM5 chip); assay type: binding
T1 construct: bHLH/LZ domain fragment, residues 354-437; purified by DEAE ion exchange; coupled to CM5 chip; no Max present
T1 sequence (P01106 369-452): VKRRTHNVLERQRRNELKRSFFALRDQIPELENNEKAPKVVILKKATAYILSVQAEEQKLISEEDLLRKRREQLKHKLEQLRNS

Question: Which results are given for `CCn1c(=O)c(-c2cc[nH]n2)cc2c(C)nc(N)nc21` [Voxtalisib]?
Answer: viability at 10 µM (Hep3B): 23.1%; viability at 48 h, 10 µM (in vitro): 26.9%

Question: Which results are given for `Cn1c(=O)n(-c2ccc(C(C)(C)C#N)cc2)c2c3cc(-c4cnc5ccccc5c4)ccc3ncc21` [Dactolisib]?
Answer: Cell viability of Hep3B (Mean of Hep3B/DMSO) (%) (Hep3B; [mut] cells, 10 µM): 21.03%; viability at 48 h, 10 µM (in vitro): 27.2%

Question: For `COc1ccc(COc2cc3oc(=O)c4cc(C(C)O)ccc4c3cc2OC)cc1` (stereo not drawn) [Palomid529], which viability at 10 µM (Hep3B) is on record?
Answer: The viability at 10 µM was 62.4%.

Question: What about the viability at 48 h, 10 µM (in vitro) of the same compound?
Answer: Its viability at 48 h, 10 µM is 58.1%.

Question: Which results are given for `CNC(=O)Nc1ccc(-c2nc(N3CC4CCC(C3)O4)c3cnn(C4CCC5(CC4)OCCO5)c3n2)cc1` [WYE-125132]?
Answer: viability at 10 µM (Hep3B): 27.2%; viability at 48 h, 10 µM (in vitro): 45.1%

Question: With `C=CCNC(=[Se])NN=C(c1ccccc1)c1ncccn1` [4a, Phenyl‐2‐pyrimidinyl ketone 4‐allyl‐3‐amino selenourea] as the compound, how does the Kd [1] read?
Answer: Its Kd is 0.562 nM.

Question: What about the viability at 48 h, 10 µM (in vitro) of the same compound?
Answer: The viability at 48 h, 10 µM was 79.4%.

Question: Which viability at 10 µM (Hep3B) does the source give for `O=S(=O)(NCCNC/C=C/c1ccc(Br)cc1)c1cccc2cnccc12` [H89 2HCL] here?
Answer: Its viability at 10 µM is 57%.

Question: With `CCC(=O)N1CCN(c2ccc(-n3c(=O)ccc4cnc5ccc(-c6cnc7ccccc7c6)cc5c43)cc2C(F)(F)F)CC1` [Torin1] as the compound, how does the viability at 10 µM (Hep3B) read?
Answer: The viability at 10 µM was 24%.

Question: For `O=C1NC(=O)/C(=C/c2ccc3nccc(-c4ccncc4)c3c2)S1` [GSK1059615], which viability at 10 µM (Hep3B) is on record?
Answer: Its viability at 10 µM is 17.9%.

Question: And the viability at 48 h, 10 µM (in vitro)?
Answer: Its viability at 48 h, 10 µM is 13.5%.

Question: For `Cc1[nH]nc2ccc(-c3cncc(OC[C@@H](N)Cc4ccccc4)c3)cc12` [A-674563], which viability at 10 µM (Hep3B) is on record?
Answer: Its viability at 10 µM is 21.7%.

Question: For `CC(C)n1nc(-c2cc3cc(O)ccc3[nH]2)c2c(N)ncnc21` [Torkinib], which viability at 10 µM (Hep3B) is on record?
Answer: Its viability at 10 µM is 44.8%.

Question: Which results are given for `c1ccc2c(CCNc3ccc(Nc4ccncc4)cc3)c[nH]c2c1` [JNJ26854165]?
Answer: viability at 10 µM (Hep3B): 17.7%; viability at 48 h, 10 µM (in vitro): 38%

Question: With `Cc1c(CN2CCN(C(=O)[C@H](C)O)CC2)sc2c(N3CCOCC3)nc(-c3cnc(N)nc3)nc12` [Apitolisib] as the compound, how does the viability at 10 µM (Hep3B) read?
Answer: The viability at 10 µM was 29.4%.

Question: And the viability at 48 h, 10 µM (in vitro)?
Answer: The viability at 48 h, 10 µM was 37.1%.

Question: With `O=C1NCCc2[nH]c(-c3ccncc3)cc21` [PHA-767491] as the compound, how does the viability at 48 h, 10 µM (in vitro) read?
Answer: The viability at 48 h, 10 µM was 22.2%.

Question: What does the source list for `CCn1c(-c2nonc2N)nc2c(C#CC(C)(C)O)ncc(OC[C@H]3CCCNC3)c21` [GSK690693]?
Answer: viability at 10 µM (Hep3B): 63.8%; viability at 48 h, 10 µM (in vitro): 49.3%

Question: With `NC1(Cc2ccc(Cl)cc2)CCN(c2ncnc3[nH]ccc23)CC1` [CCT128930] as the compound, how does the viability at 10 µM (Hep3B) read?
Answer: Its viability at 10 µM is 34.4%.
